# Patent US8021664B2, “Tumor antigens Bfa5 for prevention and/or treatment of cancer” (Sanofi Pasteur Limited, priority 2003, dated 2011)
# Where no end group is shown, it is not given here. KLH = keyhole limpet hemocyanin carrier protein
# What was measured:
# HLA-A*0201 human T cells = assay: IFN-γ ELISPOT on human T-cell cultures activated with BFA5 peptides pulsed on autologous dendritic cells; type: cell-based; conditions: for BFA5 peptides eliciting high IFN-γ release (>200 spots/100,000 cells): a peptide given is positive
# Description: A library of 100 peptides from the BFA5/NYBR-1 coding sequence that are predicted to be medium to high binders to HLA-A*0201 were designed using Rammensee and Parker algorithms. The library was sub-divided into 10 pools of ten peptides (Table III), and each pool was used to activate 10 different T cell cultures after pulsing peptides on to mature autologous dendritic cells.
# ELISPOT analysis was performed on human T-cell cultures activated through four rounds of stimulation with each pool of BFA5 peptides. Reactivity against a CMV pp 65 peptide and a Flu matrix peptide were used as positive controls for T-cell activation in the experiments. Each experiment was performed with PBMC and dendritic cells from a single HLA-A*0201^+ donor designated as “AP10”. […] Similar results were obtained for both BFA4 and BFA5/NYBR-1 with a different HLA-A*0201. […] Cultures having a reading of 600 spots have more than this number of spots.
# A large number of the BFA5 peptide pools of are reactive as shown by the high levels of IFN-γ production. Each reactive peptide pool was then separated into individual peptides and analyzed for immunogencity using ELISPOT analysis to isolate single reactive BFA5 peptides. BFA5 is highly immunogenic with several reactive single peptides than that of BFA4. Similar results were obtained in two independent PBMC culture experiments.
# peptide-loaded T2 cells = assay: 51Cr-release CTL assay of peptide-activated T cells; conditions: a peptide given is positive
# Description: In addition to ELISPOT analysis, human T cells activated by BFA5 peptides were assayed to determine their ability to function as CTL. The cells were activated using peptide-pulsed dendritic cells followed by CD40 ligand-activated B cells (5 rounds of stimulation). […] Isolated T cells were tested in ^51Cr-release assays using peptide-loaded T2 cells. The % specific lysis at a 10:1, 5:1, and 1:1 T-cell to target ratio is shown for T2 cells pulsed with either pools of BFA5/NYBR-1 peptides or with individual peptides.
# [1] = Rabbit immunization with BFA5 peptides, serum IgG titer; type: in vivo; conditions: for IgG titer × 10^5 (After first Immunization Rb1/Rb2): after first immunization (peptide in FCA); for IgG titer × 10^5 (After second Immunization Rb1/Rb2): after second immunization (KLH-coupled peptide in FIA)
# Description: Prebleed samples from rabbits were processed and stored at −20° C. Rabbits were immunized as follows: 1) the peptides were administered as an emulsion with Freund's Complete Adjuvant (FCA); and, 2) two weeks later, the peptides were coupled with Keyhole-Limpet Hemocyanin (KLH)-coupled and administered as an emulsion with Freund's Incomplete Adjuvant FIA.
substance,measurement,setting,value
9 (SIPTKALEL; listed as Homo sapiens) [compound 9],"BFA5 peptides eliciting high IFN-γ release (>200 spots/100,000 cells)",HLA-A*0201 human T cells; Donor AP10,SIPTKALEL
same,BFA5 peptides inducing CTL lysis of pulsed cells,peptide-loaded T2 cells; Donor AP31,SIPTKALEL
8 (KVSIPTKAL; listed as Homo sapiens) [compound 8],"BFA5 peptides eliciting high IFN-γ release (>200 spots/100,000 cells)",HLA-A*0201 human T cells; Donor AP10,KVSIPTKAL
same,BFA5 peptides inducing CTL lysis of pulsed cells,peptide-loaded T2 cells; Donor AP31,KVSIPTKAL
85 (KCTALMLAV; listed as Homo sapiens) [compound 85],"BFA5 peptides eliciting high IFN-γ release (>200 spots/100,000 cells)",HLA-A*0201 human T cells; Donor AP10,KCTALMLAV
81 (ILKEKNAEL; listed as Homo sapiens) [compound 81],"BFA5 peptides eliciting high IFN-γ release (>200 spots/100,000 cells)",HLA-A*0201 human T cells; Donor AP10,ILKEKNAEL
same,"BFA5 peptides eliciting high IFN-γ release (>200 spots/100,000 cells)",HLA-A*0201 human T cells; Donor AP31,ILKEKNAEL
32 (AVYSEILSV; listed as Homo sapiens) [compound 32],"BFA5 peptides eliciting high IFN-γ release (>200 spots/100,000 cells)",HLA-A*0201 human T cells; Donor AP10,AVYSEILSV
49 (SVPNKAFEL; listed as Homo sapiens) [compound 49],"BFA5 peptides eliciting high IFN-γ release (>200 spots/100,000 cells)",HLA-A*0201 human T cells; Donor AP10,SVPNKAFEL
12 (SVPNKALEL; listed as Homo sapiens) [compound 12],"BFA5 peptides eliciting high IFN-γ release (>200 spots/100,000 cells)",HLA-A*0201 human T cells; Donor AP10,SVPNKALEL
78 (VFAADICGV; listed as Homo sapiens) [compound 78],"BFA5 peptides eliciting high IFN-γ release (>200 spots/100,000 cells)",HLA-A*0201 human T cells; Donor AP31,VFAADICGV
KLH-MTKRKKTINLNIQDAQKRTALHW ({KLH}-MTKRKKTINLNIQDAQKRTALHW; listed as Homo sapiens) [CLP 2977],IgG titer × 10^5 (After first Immunization Rb1/Rb2),[1]; rabbit Rb1,25 × 10^5
same,IgG titer × 10^5 (After second Immunization Rb1/Rb2),[1]; rabbit Rb1,256 × 10^5
same,IgG titer × 10^5 (After first Immunization Rb1/Rb2),[1]; rabbit Rb2,6 × 10^5
same,IgG titer × 10^5 (After second Immunization Rb1/Rb2),[1]; rabbit Rb2,64 × 10^5
77 (AELQMTLKL; listed as Homo sapiens) [compound 77],"BFA5 peptides eliciting high IFN-γ release (>200 spots/100,000 cells)",HLA-A*0201 human T cells; Donor AP10,AELQMTLKL
same,BFA5 peptides inducing CTL lysis of pulsed cells,peptide-loaded T2 cells; Donor AP10,AELQMTLKL
same,BFA5 peptides inducing CTL lysis of pulsed cells,peptide-loaded T2 cells; Donor AP31,AELQMTLKL
57 (KSQEPAFHI; listed as Homo sapiens) [compound 57],"BFA5 peptides eliciting high IFN-γ release (>200 spots/100,000 cells)",HLA-A*0201 human T cells; Donor AP31,KSQEPAFHI
KLH-DEILPSESKQKDYEENSWDTESL ({KLH}-DEILPSESKQKDYEENSWDTESL; listed as Homo sapiens) [CLP 2979],IgG titer × 10^5 (After first Immunization Rb1/Rb2),[1]; rabbit Rb1,12 × 10^5
same,IgG titer × 10^5 (After second Immunization Rb1/Rb2),[1]; rabbit Rb1,256 × 10^5
same,IgG titer × 10^5 (After first Immunization Rb1/Rb2),[1]; rabbit Rb2,25 × 10^5
same,IgG titer × 10^5 (After second Immunization Rb1/Rb2),[1]; rabbit Rb2,512 × 10^5
59 (MLKLEIATL; listed as Homo sapiens) [compound 59],"BFA5 peptides eliciting high IFN-γ release (>200 spots/100,000 cells)",HLA-A*0201 human T cells; Donor AP10,MLKLEIATL
same,"BFA5 peptides eliciting high IFN-γ release (>200 spots/100,000 cells)",HLA-A*0201 human T cells; Donor AP31,MLKLEIATL
same,BFA5 peptides inducing CTL lysis of pulsed cells,peptide-loaded T2 cells; Donor AP31,MLKLEIATL
KLH-TSEKFTWPAKGRPRKIAWEKKED ({KLH}-TSEKFTWPAKGRPRKIAWEKKED; listed as Homo sapiens) [CLP 2978],IgG titer × 10^5 (After first Immunization Rb1/Rb2),[1]; rabbit Rb1,25/25 × 10^5
same,IgG titer × 10^5 (After second Immunization Rb1/Rb2),[1]; rabbit Rb1,64 × 10^5
same,IgG titer × 10^5 (After first Immunization Rb1/Rb2),[1]; rabbit Rb2,25/25 × 10^5
same,IgG titer × 10^5 (After second Immunization Rb1/Rb2),[1]; rabbit Rb2,256 × 10^5
54 (GVTAEHYAV; listed as Homo sapiens) [compound 54],"BFA5 peptides eliciting high IFN-γ release (>200 spots/100,000 cells)",HLA-A*0201 human T cells; Donor AP31,GVTAEHYAV
KLH-RLTLNQEEEKRRNADILNEKIRE ({KLH}-RLTLNQEEEKRRNADILNEKIRE; listed as Homo sapiens) [CLP 2980],IgG titer × 10^5 (After first Immunization Rb1/Rb2),[1]; rabbit Rb1,25 × 10^5
same,IgG titer × 10^5 (After second Immunization Rb1/Rb2),[1]; rabbit Rb1,1024 × 10^5
same,IgG titer × 10^5 (After first Immunization Rb1/Rb2),[1]; rabbit Rb2,12 × 10^5
same,IgG titer × 10^5 (After second Immunization Rb1/Rb2),[1]; rabbit Rb2,128 × 10^5
28 (SLSKILDTV; listed as Homo sapiens) [compound 28],"BFA5 peptides eliciting high IFN-γ release (>200 spots/100,000 cells)",HLA-A*0201 human T cells; Donor AP10,SLSKILDTV
same,"BFA5 peptides eliciting high IFN-γ release (>200 spots/100,000 cells)",HLA-A*0201 human T cells; Donor AP31,SLSKILDTV
same,BFA5 peptides inducing CTL lysis of pulsed cells,peptide-loaded T2 cells; Donor AP31,SLSKILDTV
84 (NLVDVYGNM; listed as Homo sapiens) [compound 84],"BFA5 peptides eliciting high IFN-γ release (>200 spots/100,000 cells)",HLA-A*0201 human T cells; Donor AP10,NLVDVYGNM
same,BFA5 peptides inducing CTL lysis of pulsed cells,peptide-loaded T2 cells; Donor AP10,NLVDVYGNM
KLH-NYNNHLKNRIYQYEKEKAETENS ({KLH}-NYNNHLKNRIYQYEKEKAETENS; listed as Homo sapiens) [CLP 2982],IgG titer × 10^5 (After first Immunization Rb1/Rb2),[1]; rabbit Rb1,2/2 × 10^5
same,IgG titer × 10^5 (After second Immunization Rb1/Rb2),[1]; rabbit Rb1,64 × 10^5
same,IgG titer × 10^5 (After first Immunization Rb1/Rb2),[1]; rabbit Rb2,2/2 × 10^5
same,IgG titer × 10^5 (After second Immunization Rb1/Rb2),[1]; rabbit Rb2,32 × 10^5
30 (KVMEINREV; listed as Homo sapiens) [compound 30],"BFA5 peptides eliciting high IFN-γ release (>200 spots/100,000 cells)",HLA-A*0201 human T cells; Donor AP10,KVMEINREV
74 (ATCGMKVSI; listed as Homo sapiens) [compound 74],"BFA5 peptides eliciting high IFN-γ release (>200 spots/100,000 cells)",HLA-A*0201 human T cells; Donor AP10,ATCGMKVSI
same,BFA5 peptides inducing CTL lysis of pulsed cells,peptide-loaded T2 cells; Donor AP10,ATCGMKVSI
61 (MLKKEIAML; listed as Homo sapiens) [compound 61],"BFA5 peptides eliciting high IFN-γ release (>200 spots/100,000 cells)",HLA-A*0201 human T cells; Donor AP31,MLKKEIAML
11 (TVSQKDVCL; listed as Homo sapiens) [compound 11],"BFA5 peptides eliciting high IFN-γ release (>200 spots/100,000 cells)",HLA-A*0201 human T cells; Donor AP10,TVSQKDVCL
67 (VLKKKLSEA; listed as Homo sapiens) [compound 67],"BFA5 peptides eliciting high IFN-γ release (>200 spots/100,000 cells)",HLA-A*0201 human T cells; Donor AP31,VLKKKLSEA
24 (QLQSKNMWL; listed as Homo sapiens) [compound 24],"BFA5 peptides eliciting high IFN-γ release (>200 spots/100,000 cells)",HLA-A*0201 human T cells; Donor AP10,QLQSKNMWL
same,"BFA5 peptides eliciting high IFN-γ release (>200 spots/100,000 cells)",HLA-A*0201 human T cells; Donor AP31,QLQSKNMWL
same,BFA5 peptides inducing CTL lysis of pulsed cells,peptide-loaded T2 cells; Donor AP31,QLQSKNMWL
KLH-AENTMLTSKLKEKQDKEILEAEI ({KLH}-AENTMLTSKLKEKQDKEILEAEI; listed as Homo sapiens) [CLP 2981],IgG titer × 10^5 (After first Immunization Rb1/Rb2),[1]; rabbit Rb1,8 × 10^5
same,IgG titer × 10^5 (After second Immunization Rb1/Rb2),[1]; rabbit Rb1,256 × 10^5
same,IgG titer × 10^5 (After first Immunization Rb1/Rb2),[1]; rabbit Rb2,4 × 10^5
same,IgG titer × 10^5 (After second Immunization Rb1/Rb2),[1]; rabbit Rb2,64 × 10^5
51 (NLNYAGDAL; listed as Homo sapiens) [compound 51],"BFA5 peptides eliciting high IFN-γ release (>200 spots/100,000 cells)",HLA-A*0201 human T cells; Donor AP10,NLNYAGDAL
same,"BFA5 peptides eliciting high IFN-γ release (>200 spots/100,000 cells)",HLA-A*0201 human T cells; Donor AP31,NLNYAGDAL
"BFA4: tumor antigen BFA4 (SEQ ID NOS.: 1 and 2), compared with BFA5 in T-cell ELISPOT",ELISPOT reactivity (IFN-γ production) of peptide pools,"HLA-A*0201 human T cells; four rounds of stimulation, HLA-A*0201+ donor AP10, counts per 100,000 cells",markedly reactive
72 (SLKINLNYA; listed as Homo sapiens) [compound 72],"BFA5 peptides eliciting high IFN-γ release (>200 spots/100,000 cells)",HLA-A*0201 human T cells; Donor AP10,SLKINLNYA
same,"BFA5 peptides eliciting high IFN-γ release (>200 spots/100,000 cells)",HLA-A*0201 human T cells; Donor AP31,SLKINLNYA
same,BFA5 peptides inducing CTL lysis of pulsed cells,peptide-loaded T2 cells; Donor AP31,SLKINLNVA
63 (ALRIQDIEL; listed as Homo sapiens) [compound 63],"BFA5 peptides eliciting high IFN-γ release (>200 spots/100,000 cells)",HLA-A*0201 human T cells; Donor AP10,ALRIQDIEL
37 (SLTPLLLSI; listed as Homo sapiens) [compound 37],"BFA5 peptides eliciting high IFN-γ release (>200 spots/100,000 cells)",HLA-A*0201 human T cells; Donor AP10,SLTPLLLSI
same,"BFA5 peptides eliciting high IFN-γ release (>200 spots/100,000 cells)",HLA-A*0201 human T cells; Donor AP31,SLTPLLLSI
same,BFA5 peptides inducing CTL lysis of pulsed cells,peptide-loaded T2 cells; Donor AP31,SLTPLLLSI
